Laboratory results from BindingDB's records for doi:10.1111/cbdd.12807 (Zhejiang Hospital, 2016).

Legend:
[1] = biological target: 72 kDa type IV collagenase (Rat, UniProt P33436); experiment: enzyme-based fluorimetric assay; conditions: pH 7.5; 25 °C
Description: (§1) For this assay, the reagents used as follows. The substrate corresponds to Mca-Pro-Leu-Gly-Leu-Dpa-Ala-Arg 25 mm in assay buffer. This low-fluorescent peptide is cleaved by MMPs to provide Mca-Pro-Leu-Gly, which is intensely fluorescent at an excitation at 340 nm and emission at 405 nm. While the enzymes pro-MMP-2 250 pm and MMP-9 (recombinant catalytic sequence) 500 pm in assay buffer. The assay buffer consists of Tris HCl 0.1 m, pH 7.5, NaCl 0.1 m, CaCl2 10 mm, 0.05% v/v BRIJ35, APMA (p-aminophenylmercuric acetate) 1 mm. This was carried out in 96-well plate, a solution of […] at the appropriate concentration and […] was incubated together at 25 °C for 30 min, and […] of substrate solution was added and the plate was further incubated 3 h at 37 °C. The incubation solutions were quenched with acetic acid ([…] soln.) and their fluorescence was recorded with the help of a plate reader spectrometer. The inhibitory activities were calculated against a control and IC50 curves, derived from 6 different inhibitor concentrations, extrapolated by means of statistical analysis program graphpad prism (v. 4.0; San Diego, CA, USA). Each inhibitor concentration was used in triplicate and the experiments run twice.

[2] = biological target: Matrix metalloproteinase-9 (Rattus norvegicus, UniProt P50282); experiment: enzyme-based fluorimetric assay; conditions: pH 7.5; 25 °C
Description: as §1

Chain of Matrix metalloproteinase-9 (P50282 whole entry): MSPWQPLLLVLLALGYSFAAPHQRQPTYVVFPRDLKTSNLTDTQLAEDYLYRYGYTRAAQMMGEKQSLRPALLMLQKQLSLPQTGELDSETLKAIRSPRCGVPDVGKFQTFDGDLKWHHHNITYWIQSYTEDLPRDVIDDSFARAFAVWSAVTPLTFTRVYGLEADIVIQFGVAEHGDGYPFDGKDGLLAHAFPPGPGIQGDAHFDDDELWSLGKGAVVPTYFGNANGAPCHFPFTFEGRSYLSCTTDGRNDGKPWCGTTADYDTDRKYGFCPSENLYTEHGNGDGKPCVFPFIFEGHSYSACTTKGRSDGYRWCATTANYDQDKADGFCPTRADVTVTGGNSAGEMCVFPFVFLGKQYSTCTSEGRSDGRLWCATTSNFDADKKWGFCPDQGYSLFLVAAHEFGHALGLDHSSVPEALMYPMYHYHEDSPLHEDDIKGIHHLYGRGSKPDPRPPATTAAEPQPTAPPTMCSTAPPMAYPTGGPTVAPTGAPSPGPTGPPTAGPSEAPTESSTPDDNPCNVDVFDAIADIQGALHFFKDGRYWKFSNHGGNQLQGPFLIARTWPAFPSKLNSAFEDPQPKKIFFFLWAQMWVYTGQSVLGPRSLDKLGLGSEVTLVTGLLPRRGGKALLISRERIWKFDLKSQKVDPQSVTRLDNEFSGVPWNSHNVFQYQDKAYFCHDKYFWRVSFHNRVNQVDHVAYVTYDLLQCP
Chain of 72 kDa type IV collagenase (P33436 whole entry): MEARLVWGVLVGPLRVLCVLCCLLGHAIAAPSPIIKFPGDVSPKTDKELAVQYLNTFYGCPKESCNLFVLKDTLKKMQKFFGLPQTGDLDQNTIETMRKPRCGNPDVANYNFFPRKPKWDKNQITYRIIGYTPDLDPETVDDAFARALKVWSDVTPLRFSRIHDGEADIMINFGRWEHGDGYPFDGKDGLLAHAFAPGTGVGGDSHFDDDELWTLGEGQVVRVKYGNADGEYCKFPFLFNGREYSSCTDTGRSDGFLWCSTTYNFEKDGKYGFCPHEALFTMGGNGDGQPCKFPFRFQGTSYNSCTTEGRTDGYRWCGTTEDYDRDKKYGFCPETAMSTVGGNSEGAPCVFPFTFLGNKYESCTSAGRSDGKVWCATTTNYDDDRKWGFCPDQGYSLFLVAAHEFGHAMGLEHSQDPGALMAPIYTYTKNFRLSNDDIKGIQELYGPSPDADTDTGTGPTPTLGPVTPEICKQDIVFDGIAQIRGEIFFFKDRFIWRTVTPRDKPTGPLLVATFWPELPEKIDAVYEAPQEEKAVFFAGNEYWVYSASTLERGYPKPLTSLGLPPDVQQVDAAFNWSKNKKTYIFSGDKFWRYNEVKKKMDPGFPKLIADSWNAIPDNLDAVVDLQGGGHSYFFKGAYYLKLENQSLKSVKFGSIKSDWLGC

Row | Structure (SMILES) | IC50 [1] [µM] | IC50 [2] [µM]
1 | COc1ccc(Nc2nc(Nc3ccc(OC)cc3)nc(-n3nc(-c4ccc(NS(=O)(=O)c5ccc(C)cc5)cc4)cc3-c3ccc(OC)cc3)n2)cc1 [N-(4-(1-(4,6-bis((4-methoxyphenyl)amino)-1,3,5-triazin-2-yl)-5-(4-methoxyphenyl)-1H-pyrazol-3-yl)phenyl)-4-methylbenzenesulphonamide (8f)] | 0.0186 | 0.0102
2 | COc1ccc(-c2cc(-c3ccc(NS(=O)(=O)c4ccc(C)cc4)cc3)nn2-c2nc(Nc3ccc([N+](=O)[O-])cc3)nc(Nc3ccc([N+](=O)[O-])cc3)n2)cc1 [N-(4-(1-(4,6-bis((4-nitrophenyl)amino)-1,3,5-triazin-2-yl)-5-(4-methoxyphenyl)-1H-pyrazol-3-yl)phenyl)-4-methylbenzenesulphonamide (8h)] | 0.0766 | 0.0685
3 | CNc1nc(NC)nc(-n2nc(-c3ccc(NS(=O)(=O)c4ccc(C)cc4)cc3)cc2-c2ccc(OC)cc2)n1 [N-(4-(1-(4,6-bis(methylamino)-1,3,5-triazin-2-yl)-5-(4-methoxyphenyl)-1H-pyrazol-3-yl)phenyl)-4-methylbenzenesulphonamide (8a)] | 0.666 | 0.625
4 | COc1ccc(-c2cc(-c3ccc(NS(=O)(=O)c4ccc(C)cc4)cc3)nn2-c2nc(Nc3ccc(O)cc3)nc(Nc3ccc(O)cc3)n2)cc1 [N-(4-(1-(4,6-bis((4-hydroxyphenyl)amino)-1,3,5-triazin-2-yl)-5-(4-methoxyphenyl)-1H-pyrazol-3-yl)phenyl)-4-methylbenzenesulphonamide (8e)] | 0.00812 | 0.00234
5 | COc1ccc(-c2cc(-c3ccc(NS(=O)(=O)c4ccc(C)cc4)cc3)nn2-c2nc(Nc3ccccc3)nc(Nc3ccccc3)n2)cc1 [N-(4-(1-(4,6-bis(phenylamino)-1,3,5-triazin-2-yl)-5-(4-methoxyphenyl)-1H-pyrazol-3-yl)phenyl)-4-methylbenzenesulphonamide (8d)] | 0.123 | 0.105
6 | COc1ccc(-c2cc(-c3ccc(NS(=O)(=O)c4ccc(C)cc4)cc3)nn2-c2nc(Nc3ccccc3C)nc(Nc3ccccc3C)n2)cc1 [N-(4-(1-(4,6-bis(o-tolylamino)-1,3,5-triazin-2-yl)-5-(4-methoxyphenyl)-1H-pyrazol-3-yl)phenyl)-4-methylbenzenesulphonamide (8g)] | 0.0671 | 0.0582
7 | COc1ccc(-c2cc(-c3ccc(NS(=O)(=O)c4ccc(C)cc4)cc3)nn2-c2nc(NCCCN)nc(NCCCN)n2)cc1 [N-(4-(1-(4,6-bis((3-aminopropyl)amino)-1,3,5-triazin-2-yl)-5-(4-methoxyphenyl)-1H-pyrazol-3-yl)phenyl)-4-methylbenzenesulphonamide (8c)] | 0.189 | 0.156
8 | CCNc1nc(NCC)nc(-n2nc(-c3ccc(NS(=O)(=O)c4ccc(C)cc4)cc3)cc2-c2ccc(OC)cc2)n1 [N-(4-(1-(4,6-bis(ethylamino)-1,3,5-triazin-2-yl)-5-(4-methoxyphenyl)-1H-pyrazol-3-yl)phenyl)-4-methylbenzenesulphonamide (8b)] | 0.332 | 0.302
9 | COc1ccc(-c2cc(-c3ccc(NS(=O)(=O)c4ccc(C)cc4)cc3)nn2-c2nc(N3CCNCC3)nc(N3CCNCC3)n2)cc1 [N-(4-(1-(4,6-di(piperazin-1-yl)-1,3,5-triazin-2-yl)-5-(4-methoxyphenyl)-1H-pyrazol-3-yl)phenyl)-4-methylbenzenesulphonamide (8i)] | 0.0553 | 0.0471
10 | COc1ccc(-c2cc(-c3ccc(NS(=O)(=O)c4ccc(C)cc4)cc3)nn2-c2nc(N3CCOCC3)nc(N3CCOCC3)n2)cc1 [N-(4-(1-(4,6-dimorpholino-1,3,5-triazin-2-yl)-5-(4-methoxyphenyl)-1H-pyrazol-3-yl)phenyl)-4-methylbenzenesulphonamide (8j)] | 0.0423 | 0.0312
